# Measured values: patent publication US20230381155A1, “TREATMENT OF BREAST CANCER USING COMBINATION THERAPIES COMPRISING GDC-9545 AND GDC-0077” (Genentech, Inc., priority 2021, published 2023)
# “Also recorded” adds a separate entry of the source.
# What was measured:
# [1] = test system: PIK3CA-mutant breast cancer cell lines; assay: proliferation and apoptosis in PIK3CA-mutant breast cancer cell lines; assay type: cell-based; conditions: nonclinical studies
# [2] = biological target: Class I alpha isoform of phosphatidylinositol 3-kinase (PI3K-α) (Homo sapiens, UniProt P42336); assay: biochemical inhibition of PI3K-α
# Chain of Class I alpha isoform of phosphatidylinositol 3-kinase (PI3K-α) (P42336 whole entry, canonical isoform): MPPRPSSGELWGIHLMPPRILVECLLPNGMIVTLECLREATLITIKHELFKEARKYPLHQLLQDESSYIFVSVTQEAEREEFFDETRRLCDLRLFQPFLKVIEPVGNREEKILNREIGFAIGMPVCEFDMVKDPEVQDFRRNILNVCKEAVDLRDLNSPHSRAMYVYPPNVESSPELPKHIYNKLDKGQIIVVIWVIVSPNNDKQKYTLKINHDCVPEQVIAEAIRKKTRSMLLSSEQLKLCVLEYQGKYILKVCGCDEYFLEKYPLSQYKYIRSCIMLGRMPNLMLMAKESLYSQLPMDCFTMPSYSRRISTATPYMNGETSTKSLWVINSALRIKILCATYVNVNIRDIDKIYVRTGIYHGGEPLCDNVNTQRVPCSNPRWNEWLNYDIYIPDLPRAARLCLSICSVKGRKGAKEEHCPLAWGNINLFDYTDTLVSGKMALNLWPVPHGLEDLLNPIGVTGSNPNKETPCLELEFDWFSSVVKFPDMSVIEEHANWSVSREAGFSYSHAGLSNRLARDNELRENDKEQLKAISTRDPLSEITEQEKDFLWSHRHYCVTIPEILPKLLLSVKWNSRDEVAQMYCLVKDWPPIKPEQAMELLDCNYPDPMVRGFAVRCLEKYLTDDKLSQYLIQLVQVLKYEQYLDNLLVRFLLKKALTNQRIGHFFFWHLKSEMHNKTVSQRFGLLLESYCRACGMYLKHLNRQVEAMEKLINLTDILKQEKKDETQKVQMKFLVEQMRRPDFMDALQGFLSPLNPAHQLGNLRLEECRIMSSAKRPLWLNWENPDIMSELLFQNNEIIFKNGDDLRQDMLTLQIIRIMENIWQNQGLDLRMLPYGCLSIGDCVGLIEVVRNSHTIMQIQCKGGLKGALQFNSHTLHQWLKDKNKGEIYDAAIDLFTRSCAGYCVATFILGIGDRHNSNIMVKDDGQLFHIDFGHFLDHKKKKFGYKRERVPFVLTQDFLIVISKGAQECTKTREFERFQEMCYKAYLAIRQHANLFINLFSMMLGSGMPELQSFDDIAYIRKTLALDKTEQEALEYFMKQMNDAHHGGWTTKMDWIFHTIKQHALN
# Chain of Class I alpha isoform of phosphatidylinositol 3-kinase (PI3K-α) (P27986 whole entry partner, canonical isoform): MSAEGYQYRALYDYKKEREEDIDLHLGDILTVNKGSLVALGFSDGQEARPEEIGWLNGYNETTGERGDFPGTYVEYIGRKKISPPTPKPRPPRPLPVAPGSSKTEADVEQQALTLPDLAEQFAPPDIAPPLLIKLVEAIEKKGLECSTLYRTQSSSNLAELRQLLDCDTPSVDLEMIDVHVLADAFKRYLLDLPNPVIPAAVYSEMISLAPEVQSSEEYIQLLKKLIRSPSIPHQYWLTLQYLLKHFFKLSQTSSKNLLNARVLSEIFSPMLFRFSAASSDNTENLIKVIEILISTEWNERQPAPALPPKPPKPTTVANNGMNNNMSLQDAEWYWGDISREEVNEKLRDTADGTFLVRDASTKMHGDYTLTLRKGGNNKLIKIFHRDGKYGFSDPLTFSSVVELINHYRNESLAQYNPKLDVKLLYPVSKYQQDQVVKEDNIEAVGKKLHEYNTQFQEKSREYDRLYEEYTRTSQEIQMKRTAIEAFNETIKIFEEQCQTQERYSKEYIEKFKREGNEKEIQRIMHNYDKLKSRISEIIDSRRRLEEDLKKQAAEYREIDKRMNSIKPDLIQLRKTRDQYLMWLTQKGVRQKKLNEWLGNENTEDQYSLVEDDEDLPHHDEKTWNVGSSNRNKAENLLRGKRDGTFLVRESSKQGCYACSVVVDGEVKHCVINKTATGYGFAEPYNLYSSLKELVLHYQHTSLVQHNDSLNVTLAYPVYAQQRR
# [3] = test system: tumor cells bearing mutant p110a; assay: potency in tumor cells, mutant versus wild-type p110a; assay type: cell-based
# [4] = test system: patients with measurable disease; assay: clinical study of single agent GDC-0077, RECIST v1.1 response; assay type: in vivo, human; conditions: among 20 patients
# Source text: In one study using single agent administration of GDC-0077, among 20 patients with measurable disease treated with a 6-mg, 9-mg, or 12-mg QD starting dose of GDC-0077 as a single agent, 5 patients (25%) achieved PRs, while 9 patients (45%) achieved clinical benefit (defined as the percentage of patients achieving confirmed Response Evaluation Criteria in Solid Tumors, Version 1.1 [RECIST v1.1]-defined CR, PR, and/or SD [non-complete response/non-progressive disease for patients with non-measurable disease at baseline] for 24 weeks). Further, 14 of the 20 patients were enrolled at the 6-mg or 9-mg QD starting dose, and 3 patients had received prior treatment with a CDK4/6i.
# [5] = test system: other Class I PI3Ks, including the β, δ, and γ isoforms; assay: biochemical inhibition of other Class I PI3Ks; conditions: δ, and γ isoforms versus PI3K-α
# [6] = test system: human breast cancer xenograft models harboring PIK3CA mutations; assay: tumor growth in breast cancer xenograft models; assay type: in vivo; conditions: nonclinical studies
# [7] = test system: ESR1 wildtype T-47D (PIK3CA.H1047R) cells; assay: CyQUANT relative viability, T-47D wildtype ESR1; assay type: cell-based; conditions: 300 nM GDC-9545, 80 nM GDC-0077, alone or combined; 0.1 nmol/L E2; 6 to 8 days
# Method: Combination of GDC-9545 and GDC-007 was investigated and compared to efficacy of each single agent and to an AI+palbociclib control. ESR1 wildtype MCF-7 (PIK3CA.E545K) and T-47D (PIK3CA.H1047R) cells, and engineered ESR1 mutant cells [MCF-7.ER.Y537S, T-47D.ER.D538G] were grown under standard cell culture conditions in RPMI media with 10% fetal bovine serum. One day prior to the addition of drugs, cells were seeded in 384-well plates in phenol red-free RPMI with 10% charcoal-stripped fetal bovine serum in order to deprive the cells of hormones. Single agent 300 nM GDC-9545, 80 nM GDC-0077, 125 nM palbociclib or a combination thereof, were tested in quadruplicate in the presence of 0.1 nmol/L estradiol (E2) during a 6-day or 8-day incubation period. The absence of E2 in the media (−E2) serves to mimic treatment with an Aromatase Inhibitor (AI). The combination of E2 withdrawal plus palbociclib—reflecting the current standard of care for metastatic breast cancer—was included. Drug concentrations of GDC-0077 and palbociclib were chosen to be clinically relevant, based on human exposures. […] The relative number of viable cells at the 6/8-day timepoint was determined by CyQUANT (ThermoFisher, C7026).
# pAkt, pPRAS40, pS6RP = assay: downstream PI3K pathway markers; conditions: nonclinical studies
# mutant p110a = assay: degradation of mutant p110a; assay type: cell-based; conditions: nonclinical studies
# Source text: Without being bound by any particular theory, GDC-0077 appears to exert its activity by binding to the adenosine binding site of p110a, thereby inhibiting the phosphorylation of membrane-bound phosphatidylinositol 4,5-bisphosphate (PIP2) to phosphatidylinositol 3,4,5-trisphophate (PIP3). This inhibition decreases downstream activation of pathway effectors including Akt and S6RP, resulting in decreased cellular proliferation, metabolism, and angiogenesis.
# MCF-7.ER.Y537S cells = assay: CyQUANT relative viability, MCF-7.ER.Y537S; assay type: cell-based; conditions: 300 nM GDC-9545, 80 nM GDC-0077, alone or combined; 0.1 nmol/L E2; 6 to 8 days
# Method: (§1) Cells were treated as shown for 6 to 8 days, and relative viability was assessed. *p<0.0001, parametric t-test.
# One day prior to the addition of drugs, cells were seeded in 384-well plates in phenol red-free RPMI with 10% charcoal-stripped fetal bovine serum in order to deprive the cells of hormones. Single agent 300 nM GDC-9545, 80 nM GDC-0077, 125 nM palbociclib or a combination thereof, were tested in quadruplicate in the presence of 0.1 nmol/L estradiol (E2) during a 6-day or 8-day incubation period. The absence of E2 in the media (−E2) serves to mimic treatment with an Aromatase Inhibitor (AI). The combination of E2 withdrawal plus palbociclib—reflecting the current standard of care for metastatic breast cancer—was included. Drug concentrations of GDC-0077 and palbociclib were chosen to be clinically relevant, based on human exposures. 300 nM GDC-9545 is a saturating concentration that is lower than the human dose equivalent of 30 mg. The relative number of viable cells at the 6/8-day timepoint was determined by CyQUANT (ThermoFisher, C7026).
# [8] = human steady-state total drug exposure, GDC-9545 versus fulvestrant; assay type: in vivo; conditions: GDC-9545 30 mg QD versus fulvestrant 500 mg IM monthly
# ER = biological target: T1, ER (Homo sapiens, UniProt P03372); assay: competition with estrogens for binding to the ER
# T1 sequence (P03372 1-595): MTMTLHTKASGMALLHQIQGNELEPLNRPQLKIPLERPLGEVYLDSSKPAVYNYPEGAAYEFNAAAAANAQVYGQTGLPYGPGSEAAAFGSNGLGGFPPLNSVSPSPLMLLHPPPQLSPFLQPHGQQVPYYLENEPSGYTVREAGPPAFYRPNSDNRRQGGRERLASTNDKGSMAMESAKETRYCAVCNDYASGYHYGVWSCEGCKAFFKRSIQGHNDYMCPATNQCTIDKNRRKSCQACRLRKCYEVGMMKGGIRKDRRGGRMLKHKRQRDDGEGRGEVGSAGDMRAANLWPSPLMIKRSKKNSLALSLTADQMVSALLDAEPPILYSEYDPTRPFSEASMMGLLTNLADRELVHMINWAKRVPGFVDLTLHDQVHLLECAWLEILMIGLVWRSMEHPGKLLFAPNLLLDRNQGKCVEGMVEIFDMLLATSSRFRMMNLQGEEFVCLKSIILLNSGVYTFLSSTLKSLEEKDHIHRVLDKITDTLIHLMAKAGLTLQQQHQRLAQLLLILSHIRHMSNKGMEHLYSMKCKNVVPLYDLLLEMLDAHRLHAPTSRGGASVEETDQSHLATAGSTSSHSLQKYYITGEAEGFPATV
# [9] = test system: ER, wild-type and ESR1-mutant contexts; assay: in vitro cell and biochemical assays, potency versus fulvestrant
# [10] = assay type: in vitro ADME
# [11] = test system: ESR1 wildtype MCF-7 (PIK3CA.E545K) cells; assay: CyQUANT relative viability, MCF-7 wildtype ESR1; assay type: cell-based; conditions: 300 nM GDC-9545, 80 nM GDC-0077, alone or combined; 0.1 nmol/L E2; 6 to 8 days
# Method: as §1
# ESR1 wildtype MCF-7 (PIK3CA.E545K) and T-47D (PIK3CA.H1047R) cells, and engineered ESR1 mutant cells [MCF-7.ER.Y537S, T-47D.ER.D538G] were grown under standard cell culture conditions in RPMI media with 10% fetal bovine serum. One day prior to the addition of drugs, cells were seeded in 384-well plates in phenol red-free RPMI with 10% charcoal-stripped fetal bovine serum in order to deprive the cells of hormones. Single agent 300 nM GDC-9545, 80 nM GDC-0077, 125 nM palbociclib or a combination thereof, were tested in quadruplicate in the presence of 0.1 nmol/L estradiol (E2) during a 6-day or 8-day incubation period. The absence of E2 in the media (−E2) serves to mimic treatment with an Aromatase Inhibitor (AI). The combination of E2 withdrawal plus palbociclib—reflecting the current standard of care for metastatic breast cancer—was included. […] The relative number of viable cells at the 6/8-day timepoint was determined by CyQUANT (ThermoFisher, C7026).
# oral bioavailability = conditions: in vivo
# [12] = test system: ER+ breast cancer models of ESR1-wild type and ESR1-mutation-bearing disease; assay: nonclinical activity in ER+ breast cancer models
# T-47D.ER.D538G cells = assay: CyQUANT relative viability, T-47D.ER.D538G; assay type: cell-based; conditions: 300 nM GDC-9545, 80 nM GDC-0077, alone or combined; 0.1 nmol/L E2; 6 to 8 days
# Method: as §1
# frontline patients = conditions: NCT01602380; cited from earlier work
# [13] = test system: ER+ breast cancer xenograft models; assay: xenograft models, efficacy versus fulvestrant; assay type: in vivo; conditions: fulvestrant dosed according to a clinically relevant dosing scheme
# [14] = 6-mg, 9-mg, or 12-mg QD starting dose, single agent
# [15] = CR, PR and/or SD for 24 weeks, RECIST v1.1
compound,measurement,setting,value
"C[C@H](Nc1ccc2c(c1)OCCn1cc(N3C(=O)OC[C@H]3C(F)F)nc1-2)C(N)=O [GDC-0077, (2S)-2-[[2-[(4S)-4-(Difluoromethyl)-2-oxo-3-oxazolidinyl]-5,6-dihydroimidazo[1,2-d][1,4]benzoxazepin-9-yl]amino]propanamide]",apoptosis,[1],induces apoptosis
same,proliferation,[1],inhibits proliferation
same,inhibition of PI3K-α,[2],potent and selective inhibitor
same,potency in cells bearing mutant p110a over cells bearing wild-type p110a,[3],increased potency
same,patients achieving PRs,[4]; [14],5 patients
same,"patients achieving PRs, percentage",[4]; [14],25%
same,patients achieving clinical benefit,[4]; [15],9 patients
same,"patients achieving clinical benefit, percentage",[4]; [15],45%
same,less potent biochemical inhibition of other Class I PI3Ks (selectivity),[5],> 300 fold
same,tumor growth,[6],inhibits tumor growth
same,anti-proliferative effect / relative viability,[7],did not achieve the same anti-proliferative activity as the combination of the agents
same,"downstream PI3K pathway markers pAkt, pPRAS40, pS6RP","pAkt, pPRAS40, pS6RP",reduces downstream PI3K pathway markers
same,degradation of mutant p110a,mutant p110a,specifically degrades mutant p110a
C[C@@H]1Cc2c([nH]c3ccccc23)[C@@H](c2c(F)cc(NC3CN(CCCF)C3)cc2F)N1CC(F)(F)CO [GDC-9545],anti-proliferative effect / relative viability,MCF-7.ER.Y537S cells,reduced cell numbers relative to the control condition
same,human steady-state total drug exposure relative to fulvestrant,[8],approximately 10 fold
same,potency of competition with estrogens for binding to the ER,ER,low nanomolar potency
same,potency relative to fulvestrant,[9],up to 10 times
same,plasma protein binding compared with fulvestrant,[10],lower plasma protein binding
same,anti-proliferative effect / relative viability,[11],greater impact on cell viability versus estrogen withdrawal
same,anti-proliferative effect / relative viability,[7],reduced cell proliferation relative to control treated cells; also recorded: did not achieve the same anti-proliferative activity as the combination of the agents
same,oral bioavailability,oral bioavailability,orally bioavailable
same,nonclinical activity,[12],robust nonclinical activity
same,anti-proliferative effect / relative viability,T-47D.ER.D538G cells,considerably more impactful than E2 withdrawal
C[C@]12CC[C@@H]3c4ccc(O)cc4C[C@@H](CCCCCCCCC[S+]([O-])CCCC(F)(F)C(F)(F)F)[C@H]3[C@@H]1CC[C@@H]2O (stereo partly shown) [fulvestrant],clinical benefit compared with anastrozole,frontline patients,benefit over anastrozole
same,efficacy in xenograft models,[13],less efficacious than GDC-9545
